Test results: article PMC3240935, “Development and characterization of a novel C-terminal inhibitor of Hsp90 in androgen dependent and independent prostate cancer cells” (2011)

Target: T1, Hsp90β (Homo sapiens, UniProt P08238)
T1 construct: gene HSP90AB1; recombinant Hsp90β purified from baculovirus infected Sf9 cells
Assay: SPR, immobilized Hsp90β, binding curve fit (kinetic Kd […])

T1 sequence (P08238 2-724): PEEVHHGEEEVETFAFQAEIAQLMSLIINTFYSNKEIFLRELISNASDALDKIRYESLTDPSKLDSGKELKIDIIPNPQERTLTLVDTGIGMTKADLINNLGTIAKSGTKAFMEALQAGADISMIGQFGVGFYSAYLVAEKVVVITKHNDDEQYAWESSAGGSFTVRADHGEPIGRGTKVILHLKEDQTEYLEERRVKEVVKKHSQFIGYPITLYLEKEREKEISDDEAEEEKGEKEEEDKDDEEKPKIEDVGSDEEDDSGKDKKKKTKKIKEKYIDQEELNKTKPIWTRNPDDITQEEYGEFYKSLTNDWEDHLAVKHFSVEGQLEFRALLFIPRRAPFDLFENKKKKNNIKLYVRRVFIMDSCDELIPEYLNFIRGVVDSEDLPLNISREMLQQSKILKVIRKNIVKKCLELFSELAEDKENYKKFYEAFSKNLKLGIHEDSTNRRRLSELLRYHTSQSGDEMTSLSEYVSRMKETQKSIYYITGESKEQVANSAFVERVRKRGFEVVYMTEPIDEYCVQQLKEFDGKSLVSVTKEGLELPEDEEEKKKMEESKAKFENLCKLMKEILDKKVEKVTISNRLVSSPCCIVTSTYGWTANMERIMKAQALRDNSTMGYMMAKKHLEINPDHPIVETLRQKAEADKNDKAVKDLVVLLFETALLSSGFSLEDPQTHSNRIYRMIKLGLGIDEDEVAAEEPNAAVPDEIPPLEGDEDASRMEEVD

Kd: 78 µM
Substance: KU174
